Results reported in US7217722B2 (Kirin Beer Kabushiki Kaisha, priority 2000, dated 2007).

Tests used:
[1] = biological target: Rho kinase (fused protein of bovine Rho kinase catalyst region and glutathione S-transferase) (Bos taurus, UniProt Q28021); test: Rho kinase inhibitory activity (phosphorylation of S6 231–239 substrate, γ32P-ATP); assay type: biochemical; conditions: concentration inhibiting substrate phosphorylation by 50%
Description: This permits the substrate to be labeled with the radioisotope.
Thereafter, the substrate was adsorbed to a filter paper. ATP was washed away with a phosphoric acid solution, and the amount of the phosphorylated substrate was then measured with a liquid scintillation counter.

[2] = tested on: Human-derived histiocyte lymphoma (U937/CCR2); test: Leukocyte migration inhibitory activity (MCP-1 induced migration, CHEMOTAXICELL); assay type: cell-based; conditions: Homo sapiens, U-937, 1 h, U937/CCR2, MCP-1, 1 hr, read-out: Migration inhibition (%) ± SEM; for inhibition at 3 µM: test compound 3 μM; for inhibition at 30 µM: test compound 30 μM; for inhibition at 1 µM: test compound 1 μM
Description: Human-derived histiocyte lymphoma (U937/CCR2), in which mouse-derived CCR2 had been highly expressed, was suspended in a 0.1% BSA-containing RPMI 1640 medium, to which a test compound had been added (5×10^6/ml), and the suspension was incubated for 20 min. A chemical solution (500 μl) (0.1% BSA-containing RPMI 1640 medium DMSO 1%), to which an MCP-1 ligand (1 μM) and the test compound had been added, was added to a 24-well plate. CHEMOTAXICELL was put thereon, and 200 μl of the cell suspension was added to the top layer, followed by migration under 5% carbon dioxide at 37° C. for one hr. The number of cells, which had migrated to the lower chamber, was counted with a particle count analyzer (CDA-500, SYSMEX CORPORATION), and the percentage migration inhibition was calculated by the following equation; Migration inhibition (%)={1−(number of migrated cells in the presence of test compound/number of migrated cells in the absence of test compound)}×100

[3] = tested on: spontaneously hypertensive male rats (SHR); test: Antihypertensive activity in spontaneously hypertensive rats; assay type: in vivo; conditions: Rattus norvegicus, po, 30 mg/kg oral, systolic pressure 3 to 4 hr after administration, mean ± SEM of 3 to 4 SHRs, read-out: Blood pressure depression, %
Description: This test was carried out as follows. A test compound was dissolved in purified water, or alternatively the test compound was suspended in a 5% aqueous sodium carboxymethylcellulose solution. The solution or the suspension was forcibly administered into the gaster of SHR through an oral probe. The systolic pressure of SHR was measured with a bloodless sphygmometer (BP-98A, Softron Co.) immediately before the administration of the test compound and 3 to 4 hr after the administration of the test compound or 6 to 7 hr after the administration of the test compound. The percentage of blood pressure depression was calculated by the following equation: Antihypertensive activity (%)={(blood pressure before administration of test compound−blood pressure after administration of test compound)/blood pressure before administration of test compound}×100
Each compound was administered at 30 mg/kg, and the antihypertensive activity (%) was expressed in terms of the mean value of 3 to 4 SHRs and SEM (standard error of the mean).
For data with *, the blood pressure was measured 6 to 7 hr after the administration of the test compound, and, for data with no marks, the blood pressure was measured 3 to 4 hr after the administration of the test compound.

Sequence of Rho kinase (fused protein of bovine Rho kinase catalyst region and glutathione S-transferase) (Q28021 92-354 limits assumed): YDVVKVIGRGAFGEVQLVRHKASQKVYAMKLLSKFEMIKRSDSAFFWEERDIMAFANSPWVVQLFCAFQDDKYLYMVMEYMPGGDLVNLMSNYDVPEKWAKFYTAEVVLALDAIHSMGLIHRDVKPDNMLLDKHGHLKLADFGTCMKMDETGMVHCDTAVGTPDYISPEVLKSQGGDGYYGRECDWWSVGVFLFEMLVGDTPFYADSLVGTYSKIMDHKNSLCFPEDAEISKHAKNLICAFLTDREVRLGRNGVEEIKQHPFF

| IC50 [1] | SMILES | inhibition at 3 µM [2] | inhibition at 30 µM [2] | inhibition in vivo at 30 mg/kg [3] | also measured |
| --- | --- | --- | --- | --- | --- |
| 110 nM | CC(NC(=O)Nc1ccc2c(c1)C(=O)NC2=O)c1ccc(Br)cc1 (stereo not shown) [Example 20, N-[1-(4-bromophenyl)ethyl]-N′-(1,3-dioxo-2,3-dihydro-1H-5-isoindolyl)urea] | 46.7 ± 19.4% | 95.4 ± 3.4% | – | – |
| 770 nM | O=C(NCc1c(Cl)cccc1Cl)Nc1ccncc1 [Example 80, N-(2,6-dichlorobenzyl)-N′-(4-pyridyl)urea] | 26 ± 4.7% | 65.1 ± 17.3% | – | – |
| 60 nM | O=C(NCc1c(F)cccc1Cl)Nc1ccc2c(c1)C(=O)NC2=O [Example 83, N-(2-chloro-6-fluorobenzyl)-N′-(1,3-dioxo-2,3-dihydro-1H-6-isoindolyl)urea] | 16.1 ± 9.6% | 92.5 ± 3.3% | – | – |
| 69 nM | O=C(NCc1c(F)cccc1F)Nc1ccc2c(c1)C(=O)NC2=O [Example 90, N-(2,6-difluorobenzyl)-N′-(1,3-dioxo-2,3-dihydro-1H-5-isoindolyl)urea] | – | 78.3 ± 3.2% | – | – |
| 85 nM | O=C(NCc1c(F)cccc1F)Nc1ccc2[nH]ncc2c1 [Example 95, N-(2,6-difluorobenzyl)-N′-(1H-5-indazolyl)urea] | 17.1 ± 11.7% | 77.6 ± 6.4% | – | – |
| 79 nM | O=C(NCc1c(F)cccc1Cl)Nc1ccc2[nH]ncc2c1 [Example 102, N-(2-chloro-6-fluorobenzyl)-N′-(1H-5-indazolyl)urea] | 6.8 ± 17% | 96.7 ± 1% | – | – |
| 287 nM | c1cc2[nH]ncc2cc1NC1CCNCC1 [Example 128, N-(1H-5-indazolyl)-N-(4-piperidyl)amine] | 2.9 ± 12.3% | 45.9 ± 12.3% | – | – |
| – | CC(C)C(c1ccccc1)N1CCCC(Nc2ccc3[nH]ncc3c2)C1 (stereo not shown) [Example 240, N-(1H-5-indazolyl)-N-[1-(2-methyl-1-phenyl-propyl)-3-piperidyl]amine] | – | – | 21.1 ± 6.5% | – |
| – | CCCN[C@H]1CC[C@@H](Nc2ccc3[nH]ncc3c2)CC1 [Example 243 (syn), N1-(1H-5-Indazolyl)-N4-propyl-1,4-cyclohexanediamine] | – | – | 26.4 ± 5% | – |
| – | FCCN[C@H]1CC[C@H](Nc2ccc3[nH]ncc3c2)CC1 [Example 246 (anti), N1-(2-Fluoroethyl)-N4-(1H-5-indazolyl)-1,4-cyclohexanediamine] | – | – | 51.4 ± 0.9% | – |
| – | FCCN[C@H]1CC[C@@H](Nc2ccc3[nH]ncc3c2)CC1 [Example 246 (syn), N1-(2-Fluoroethyl)-N4-(1H-5-indazolyl)-1,4-cyclohexanediamine] | – | – | 37.2 ± 11.7% | – |
| – | c1cc2[nH]ncc2cc1N[C@H]1CC[C@@H](NC2CC2)CC1 [Example 247 (syn), N1-Cyclopropyl-N4-(1H-5-indazolyl)-1,4-cyclohexanediamine] | – | – | 43.3 ± 1.2% | – |
| – | N[C@H]1CC[C@H](Nc2ccc3[nH]ncc3c2)CC1 [Example 248 (anti), N1-(1H-5-Indazolyl)-1,4-cyclohexanediamine] | – | – | 18.8 ± 8% | – |
| – | Fc1cc(F)c(CN2CCCC(Nc3ccc4[nH]ncc4c3)C2)c(F)c1 (stereo not shown) [Example 282, N-(1H-5-indazolyl)-N-[1-(2,4,6-trifluorobenzyl)-3-piperidyl]amine] | – | – | – | inhibition at 1 µM [2]: 29.9 ± 4.1% |
| – | Fc1ccc(CN2CCCC(Nc3ccc4[nH]ncc4c3)C2)c(Cl)c1 (stereo not shown) [Example 293, N-[1-(2-chloro-4-fluorobenzyl)-3-piperidyl]-N-(1H-5-indazolyl)amine] | 93.5 ± 9.9% | – | – | – |
| – | COC(=O)C(c1ccc(F)c(F)c1)N1CCCC(Nc2ccc3[nH]ncc3c2)C1 (stereo not shown) [Example 294] | – | – | – | inhibition at 0.1 µM ([2]; test compound 0.1 μM): 87.4 ± 6.4%; inhibition at 0.3 µM ([2]; test compound 0.3 μM): 98.3 ± 1.4% |
| – | CCC(CC)CN1CCC(Nc2cccc3cnccc23)CC1 [Example 320, N-[1-(2-ethylbutyl)-4-piperidyl]-N-(5-isoquinolyl)amine] | – | – | – | inhibition at 1 µM [2]: 82.9 ± 7% |

| SMILES | IC50 [1] | inhibition at 3 µM [2] | inhibition at 30 µM [2] | inhibition in vivo at 30 mg/kg [3] | also measured |
| --- | --- | --- | --- | --- | --- |
| c1ccc(CN2CCC(Nc3ccc4[nH]ncc4c3)C2)cc1 (stereo not shown) [Example 146, N-(1-benzyltetrahydro-1H-pyrrolyl)-N-(1H-5-indazolyl)amine] | 32 nM | 45.6 ± 9.5% | 93.9 ± 1.7% | – | – |
